Measurements published in patent US20260167972A1, “AMINO ACID DERIVATIVES AS NOVEL DELIVERY AGENTS FOR FUNCTIONAL DELIVERY OF OLIGONUCLEOTIDES” (University of Rochester, priority 2022, published 2026).
Values joined by “and” are separate entries in the source; they are usually repeats but may differ in a detail not shown here. Identical values can stand only once.

How the values were obtained:
[1] = Dynamic light scattering of N-X-Phe-DAP/siRNA nanoparticles; format: physicochemical; conditions: for Diameter (nm), DLS: N-X-Phe-DAP/siRNA nanoparticles, 5 μM derivative, 30 nM siRNA, ± standard deviation
Procedure: Each N-X-Phe-DAP derivative (100 μM) was mixed with siRNA (600 nM) in H2O for 30 minutes, followed by dilution of this mixture into DMEM cell culture media to final concentrations of 5 μM N-X-Phe-DAP derivative and 30 nM siRNA. Dynamic light scattering (DLS) and transmission electron microscopy (TEM) were utilized to analyze the physical characteristics of the resulting N-X-Phe-DAP/siRNA nanoparticles (Table 2, FIG. 4). […] Average diameter (nm), determined by dynamic light scattering (DLS) and TEM imaging, is reported as the average of […] with the error reported as the standard deviation of the mean. Binding affinity (Kd) of each agent to siRNA was determined by a slot blot filtration assay with values reported as the average of three measurements and error reported as the standard deviation of the mean. […] (B) Diameter (nm) determined by TEM (n=9, ***p≤0.001 ****p≤0.0001).
Dynamic Light Scattering: N-X-Phe-DAP derivatives (100 μM) were complexed with siRNA (600 nM) in Ultrapure™ DNase/RNase-Free Distilled Water (Invitrogen 10977015) and allowed to incubate for 30 minutes at room temperature. These solutions were then diluted into water to give final concentrations of 5 μM Phe derivative and 30 nM siRNA. Dynamic light scattering measurements were taken using a DynaPro Plate Reader II. Diameter is reported as an average of 10 measurements using Dynamics software.

A549 cells = test: MTT cytotoxicity assay; format: cell-based, human; conditions: normalized to naïve control, ± SEM
Procedure: A549 cells were dosed with 100 µM of these derivatives for 4 h (FIG. 7A), 24 h (FIG. 7B), and 48 h (FIG. 7C). FIG. 7 reports cell viability as percent viability of A549 cells normalized to naïve control. (A) Cell viability after 4 h dosing (n=3, *p≤0.05, **p≤0.01). (B) Cell viability after 24 h dosing (n=3, *p≤0.05, **p≤0.01). (C) Cell viability after 48 h dosing (n=3, *p≤0.05, **p≤0.01, ****p≤0.0001). […] An MTT assay was performed after dosing for 4 h, 24 h, 48 h, or 4 h with media change and additional 48 h incubation. Average values are reported with calculated standard error of the mean (SEM).
The cells will also recover after exposure to N-X-Phe-DAP derivatives under conditions that resemble knockdown experiments. Cells were dosed with N-X-Phe-DAP derivatives or Lipofectamine for 4 hours, after which the media was aspirated and replaced with DMEM cell culture media and incubated for an additional 48 hours (FIG. 8). This protocol mimics the gene knockdown experiments and acts as a better indication of how cytotoxicity may impact gene silencing measurements.
Sample Preparation for Cell-Based Experiments: For delivery analysis and functional knockdown, N-X-Phe-DAP derivatives (10 μL, 1 mM) or Lipofectamine 3000 (6 μL) was mixed with TTF-1 siRNA (Santa Cruz Biotechnology sc-36756, 6 μL, 10 μM) in Ultrapure™ DNase/RNase-Free Distilled Water (Invitrogen 10977015) to give a final volume of 100 μL. These mixtures were incubated for 30 minutes at room temperature, followed by dilution into 1×DMEM (Gibco 11965092, 1.9 mL). For cytotoxicity assays, N-X-Phe-DAP derivatives (10 μL, 1 mM) were diluted into 1×DMEM (Gibco 11965092, 1.9 mL).
MTT Cytotoxicity Assay: All cytotoxicity assays were performed in triplicate. A549 cells were seeded at a density of 2400 cells/well in a 96-well plate (200 μL) and grown to 70-90% confluency. Cells were washed with 1×PBS (200 μL), N-X-Phe-DAP derivatives were added (200 μL/well), and incubated 4 h, 24 h, or 48 h at 37° C., 5% CO2 or for 4 h at 37° C., 5% CO2 followed by washing with 1×PBS and addition of complete media containing 1×DMEM (Gibco 11965092), 10% fetal bovine serum (FBS, Invitrogen 26140087), and 1× antibiotic-antimycotic (Gibco 15240-062). A solution of thiazoyl blue tetrazolium bromide (MTT, 1 mg/mL) was prepared in 1×DMEM devoid of phenol red (Invitrogen 31053028). After the appropriate incubation time, cells were washed with 1×PBS, dosed with MTT (200 μL), and incubated an additional 1 h at 37° C., 5% C02 in the dark. The 96-well plate was centrifuged for 5 min at 4000 rpm, the media was aspirated, and DMSO (100 μL) was added to the wells. Absorbance measurements (550 nm) were taken on a Tecan Infinite M1000 Pro plate reader. Cell viability was then calculated and normalized to the naïve control.

FITC-siRNA = test: Slot blot filtration binding affinity assay; conditions: binding to siRNA (FITC-siRNA); average of three measurements ± standard deviation
Procedure: The binding affinity (Kd) of N-X-Phe-DAP derivatives to siRNA was next characterized to determine how the chemical functionality of the Phe derivatives impacts siRNA interactions. Comparative binding affinity (Kd) of N-X-Phe-DAP derivatives to fluorescently labeled FITC-siRNA was determined using a slot blot filtration assay (Table 2). […] Therefore, the decrease in binding affinity of Fmoc-F5-Phe-DAP for siRNA is likely due to competition between siRNA binding and self-assembly.
Slot Blot Binding Affinity Measurements (see FIGS. 39-48): Nitrocellulose (Bio-Rad, #1620112) and nylon membranes (VWR, #95038-400) were soaked in 100 mM Tris-HCl buffer for 20 minutes. The membranes were then stacked on two sheets of Bio-Rad SF thick filter paper (#1620161) in a Bio-Rad SF 48-well slot blot apparatus. 200 μL of 100 mM Tris-HCl buffer was added to each well to test for even vacuum distribution and for membrane rehydration three times. N-X-Phe-DAP derivatives were prepared in concentrations ranging from 4000 μM to 0 μM and incubated with FITC-siRNA (6.5 μL, 1 μM) for 30 minutes in the dark. 40 μL of each sample, in addition to 200 μL Tris-HCl buffer was run in triplicate and the apparatus was covered with aluminum foil for 20 minutes. The vacuum was opened, allowing for samples in the wells to penetrate the membranes. After closing the vacuum, 200 μL of Tris-HCl buffer was added to rinse each well followed by re-opening of the vacuum three times. Membranes were then dried and imaged on Bio-Rad ChemiDoc MS. Fluorescence intensity density measurements were made using Image J. The fraction bound of siRNA was calculated using the following equation, where Initro is the fluorescence intensity measured from the nitrocellulose membrane and Inylon is the fluorescence intensity measured from the nylon membrane:
This equation is as follows where Y is the fraction bound, X is the N-X-Phe-DAP concentration (μM), Bmax is the maximum binding, Kd is the binding affinity, and h is the Hill slope: […]

Structure (SMILES)	Diameter (nm), DLS [1] [nm]	Kd (FITC-siRNA) [µM]	diameter of siRNA nanoparticles by DLS and TEM measurements [1] [nm]	Cell Viability (%) 4 h Dosing (A549 cells) [%]	Cell Viability (%) 24 h Dosing (A549 cells) [%]	Cell Viability (%) 48 h Dosing (A549 cells) [%]	Cell Viability (%) Media Change After 4 h Followed by 48 h Incubation (A549 cells)	Cell Viability (%) 4 h Dosing (A549 cells; listed as Fmoc-Pyr-DAP)	Cell Viability (%) 24 h Dosing (A549 cells; listed as Fmoc-Pyr-DAP) [%]
NCCCNC(=O)[C@H](Cc1ccccc1)NC(=O)Cc1cccc2ccccc12 [1-Nap-Phe-DAP]	221 ± 26	293		65.3 ± 3.7	69.5 ± 5.9	45.1 ± 3.1	56.5 ± 1.1%		
NCCCNC(=O)[C@H](Cc1ccccc1)NC(=O)Cc1ccc2ccccc2c1 [2-Nap-Phe-DAP]	416 ± 33	186		50.4 ± 1.5	58.3 ± 6.0	44.3 ± 8.7	60.7 ± 1.6%		
NCCCNC(=O)[C@H](Cc1ccccc1)NC(=O)CC1c2ccccc2-c2ccccc21 [Fm-Phe-DAP]	139 ± 14	307 ± 34		60.7 ± 3.6	51.7 ± 4.4	26.7 ± 4.0	72.6 ± 7.4%		
NCCCNC(=O)[C@H](Cc1c(F)c(F)c(F)c(F)c1F)NC(=O)OCC1c2ccccc2-c2ccccc21 [Fmoc-F5-Phe-DAP]	202 ± 15	217		48.1 ± 5.9			54.2 ± 6.2%		

More lines, in order of falling Kd (FITC-siRNA), values ahead:

Diameter (nm), DLS [1] [nm]	Kd (FITC-siRNA) [µM]	diameter of siRNA nanoparticles by DLS and TEM measurements [1] [nm]	Structure (SMILES)	Cell Viability (%) 4 h Dosing (A549 cells) [%]	Cell Viability (%) 24 h Dosing (A549 cells) [%]	Cell Viability (%) 48 h Dosing (A549 cells) [%]	Cell Viability (%) Media Change After 4 h Followed by 48 h Incubation (A549 cells)	Cell Viability (%) 4 h Dosing (A549 cells; listed as Fmoc-Pyr-DAP)	Cell Viability (%) 24 h Dosing (A549 cells; listed as Fmoc-Pyr-DAP) [%]
50 ± 6	183 ± 9		CCCCCCC(=O)N[C@@H](Cc1ccccc1)C(=O)NCCCN [Hex-Phe-DAP]	38.9 ± 3.7	66.0 ± 5.5	52.1 ± 4.5	53% and 53.1 ± 4.5%		
125 ± 74	179 ± 8	~100	NCCCNC(=O)[C@H](Cc1ccccc1)NC(=O)C1CCCCC1 [Cyc-Phe-DAP]	58.3 ± 9.2	59.6 ± 4.9	60.4 ± 2.6	67% and 66.5 ± 5.1%		
156 ± 13	159		NCCCNC(=O)[C@H](Cc1ccccc1)NC(=O)OCC1c2ccccc2-c2ccccc21 [Fmoc-Phe-DAP]	76.3 ± 2.8	96.5 ± 3.2	63.7 ± 5.1	76.1 ± 4.9%		
228 ± 18	131		NCCCNC(=O)[C@H](Cc1cccc(F)c1)NC(=O)OCC1c2ccccc2-c2ccccc21 [Fmoc-3F-Phe-DAP]	59.9 ± 3.8	75.3 ± 5.0	42.0 ± 2.4	71.1 ± 6.3%		
94 ± 14	97	~100	NCCCNC(=O)[C@H](Cc1ccccc1)NC(=O)OCc1ccccc1 [Cbz-Phe-DAP]	60.8 ± 3.8	69.8 ± 8.2	53.7 ± 3.0	50.2 ± 3.4%		
105 ± 8	32		NCCCNC(=O)[C@H](Cc1ccccc1)NC(=O)CCCc1ccc2ccc3cccc4ccc1c2c34 [Pyr-Phe-DAP]	17.2 ± 1.1	2.6 ± 0.8		22.3 ± 2.7%	less than 20%	< 3
